Key:
CYP2C8 [1] = target: T1, CYP2C8 (Homo sapiens, UniProt P10632); test: Inhibition of paclitaxel metabolism in human liver microsome fraction: 6α-hydroxypaclitaxel production; details: human liver microsomes
T1 sequence (P10632 1-490): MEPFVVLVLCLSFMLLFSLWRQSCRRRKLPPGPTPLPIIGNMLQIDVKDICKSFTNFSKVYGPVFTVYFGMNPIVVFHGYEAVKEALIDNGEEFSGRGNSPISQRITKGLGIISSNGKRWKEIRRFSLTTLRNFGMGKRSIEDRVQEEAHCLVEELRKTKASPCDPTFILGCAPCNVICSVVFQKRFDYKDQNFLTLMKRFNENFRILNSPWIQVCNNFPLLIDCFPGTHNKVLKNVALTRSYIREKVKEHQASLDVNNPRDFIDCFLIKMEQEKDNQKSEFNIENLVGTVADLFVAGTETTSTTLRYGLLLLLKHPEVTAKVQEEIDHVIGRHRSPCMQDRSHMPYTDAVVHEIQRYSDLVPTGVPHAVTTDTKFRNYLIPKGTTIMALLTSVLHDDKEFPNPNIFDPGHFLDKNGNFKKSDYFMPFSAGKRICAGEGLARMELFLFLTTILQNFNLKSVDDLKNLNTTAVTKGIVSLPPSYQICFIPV
Description: (§1) Then, 10 µl of 10 mM β-NADPH (Oriental Yeast Co., Ltd., Tokyo, Japan) was added, mixed, and incubated at 37 °C for 140 min. The reaction was stopped by adding 100 µl of ethanol containing 40 µM BHB as an internal standard into the reactant and mixing vigorously. After centrifugation (15,000 × g, 7 min), 10 µl of the supernatant was analyzed using HPLC–MS/MS (Quattro Premier XE, Waters, Milford, MA, USA). The mass spectrometer used an electrospray ionization source in the positive ion mode with multiple reaction monitoring. The analytical column was an Inertsil ODS-4 (2.1 mm i.d. × 100 mm, 3 µm) (GL Sciences Inc., Tokyo, Japan). The mobile phase was delivered using a linear gradient elution system consisting of 0.5% formic acid (A): acetonitrile containing 0.5% formic acid (B), at a flow rate of 0.2 ml/min, with the following gradient profile: 40% B (0 min), increasing from 40 to 70% (0–6 min), and 70% B (6–8 min).

CYP3A4 = CYP3A4 (Homo sapiens, UniProt P08684); test: Inhibition of paclitaxel metabolism in human liver microsome fraction: 3'-p-hydroxypaclitaxel production; details: human liver microsomes
CYP3A4, sequence (P08684 whole entry): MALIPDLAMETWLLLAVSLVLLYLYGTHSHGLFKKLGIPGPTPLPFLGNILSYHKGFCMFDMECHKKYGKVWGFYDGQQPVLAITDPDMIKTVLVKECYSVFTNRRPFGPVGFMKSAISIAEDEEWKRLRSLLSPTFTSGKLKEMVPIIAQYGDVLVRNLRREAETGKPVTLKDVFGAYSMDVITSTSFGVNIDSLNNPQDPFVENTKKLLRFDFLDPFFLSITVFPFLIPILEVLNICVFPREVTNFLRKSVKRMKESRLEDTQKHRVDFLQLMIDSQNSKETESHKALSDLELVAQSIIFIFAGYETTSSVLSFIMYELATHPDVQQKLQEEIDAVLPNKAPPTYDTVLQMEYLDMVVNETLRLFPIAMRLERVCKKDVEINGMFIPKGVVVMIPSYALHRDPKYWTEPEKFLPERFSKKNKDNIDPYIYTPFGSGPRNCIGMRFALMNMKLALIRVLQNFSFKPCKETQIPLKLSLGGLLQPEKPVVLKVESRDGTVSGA
Description: as §1

CYP2C8 [2] = test: CYP2C8 mRNA expression in human cryopreserved hepatocytes (quantitative PCR); details: 24 h, 1, 3 and 10 µM
Description: (§2) Plateable and interaction-qualified cryopreserved human hepatocytes (Lonza, Walkersville, MD, USA) were thawed in a hepatocyte thawing medium (Lonza) and then seeded at 5 × 10^4 cells per well in collagen-coated 96-well plates (Corning, Corning, NY, USA) with hepatocyte plating medium (Lonza). After 1 h of incubation with 5% CO2 under saturated humidity at 37 °C, the medium was replaced with fresh plating medium. After 4 h of seeding, the media were replaced with maintenance medium (Lonza) containing Matrigel (0.3 mg/ml).
(§3) After removing the medium containing Matrigel from the cells, the cells were treated with each test compound prepared in a maintenance medium (1, 3, and 10 µM). Rifampicin, a well-known CYP2C8 and CYP3A4 inducer, was used as a positive control and treated under the same conditions. […] To obtain the samples to evaluate mRNA levels, the cells were collected 24 h after drug treatment (n = 3 per test compound). […] The concentration of DMSO in the maintenance medium was 0.1%. A cell viability assay using CellTiter-Glo (Promega, Madison, WI, USA) was used to ensure the absence of cell toxicity during treatment with each compound.
RNA isolation and cDNA synthesis were carried out using the Superprep II Cell Lysis & RT Kit (Toyobo, Osaka, Japan) according to the manufacturer’s protocol. […] Data are expressed as fold-changes to the vehicle control.

CYP2C8 [3] = test: Metabolic activity of paclitaxel in human cryopreserved hepatocytes: 6α-hydroxypaclitaxel production; details: 72 h treatment at 1–10 µM, then paclitaxel 10 µM 60 min
Description: as §2, §3

[4] = parameters: method as in PMID 30974202; details: rats, oral extract of processed Aconite root 1 g/kg as original crude drug; cited from earlier work
[5] = human, pH 7.4, probe paclitaxel (6α-hydroxypaclitaxel formation)
[6] = any concentration from 0.050 to 50 µM

Compound: O=C(O)C1=CO[C@@H](O[C@@H]2O[C@H](CO)[C@@H](O)[C@H](O)[C@H]2O)[C@@H]2C(CO)=CC[C@H]12 [geniposidic acid]
- effect on production of 6α-hydroxypaclitaxel (CYP2C8 [1]; at 50 µM): significantly induced
- effect on production of 3'-p-hydroxypaclitaxel (CYP3A4; at 50 µM): induced

Compound: O=c1c(O)c(-c2ccc(O)c(O)c2)oc2cc(O)cc(O)c12 [quercetin]
- activity at 140 min, 0.3 µM (CYP2C8 [1]; [5]): 49%
- activity at 140 min, 3 µM (CYP2C8 [1]; [5]): 29%

Compound: C[C@@]12C[C@@]3(O)O[C@@H](O1)[C@]1(COC(=O)c4ccccc4)[C@H]3C[C@@]12O[C@@H]1O[C@H](CO)[C@@H](O)[C@H](O)[C@H]1O [paeoniflorin]
- effect on paclitaxel metabolism (6α-hydroxypaclitaxel production) (CYP2C8 [1]; [6]): did not affect
- effect on paclitaxel metabolism (3'-p-hydroxypaclitaxel production) (CYP3A4; [6]): did not affect

Compound: CO[C@H]1/C=C/O[C@@]2(C)Oc3c(C)c(O)c4c(O)c(c(/C=N/N5CCN(C)CC5)c(O)c4c3C2=O)NC(=O)/C(C)=C\C=C\[C@H](C)[C@H](O)[C@@H](C)[C@@H](O)[C@@H](C)[C@H](OC(C)=O)[C@@H]1C [Rifampicin, rifampicin]
- effect on CYP2C8 mRNA expression (CYP2C8 [2]): significantly induced
- effect on production of 6α-hydroxypaclitaxel by human hepatocytes (CYP2C8 [3]): significantly induced

Compound: COC(=O)C1=CO[C@@H](O[C@@H]2O[C@H](CO)[C@@H](O)[C@H](O)[C@H]2O)[C@@H]2[C@@H](C)[C@@H](O)C[C@H]12 [loganin]
- effect on production of 6α-hydroxypaclitaxel (CYP2C8 [1]; at 50 µM): significantly induced

Compound: neoline
- maximum blood concentration of neoline [4]: approximately 80 nM
- induction ratio of 6α-hydroxypaclitaxel production (CYP2C8 [1]; at 5 µM): less than 10%
- effect on production of 6α-hydroxypaclitaxel (CYP2C8 [1]; at 5.0 µM): significantly induced
- induction ratio of 3'-p-hydroxypaclitaxel production (CYP3A4; at 5 µM): less than 10%
- effect on production of 3'-p-hydroxypaclitaxel (CYP3A4; at 5.0 µM): significantly induced
- effect on production of 3'-p-hydroxypaclitaxel (CYP3A4; at 50 µM): significantly inhibited

Compound: OC[C@H]1O[C@@H](O[C@@H]2OC=C[C@H]3[C@H](O)[C@@H]4O[C@]4(CO)[C@@H]23)[C@H](O)[C@@H](O)[C@@H]1O [catalpol]
- effect on production of 6α-hydroxypaclitaxel (CYP2C8 [1]; at 50 µM): significantly induced

Reference: paper PMC8732799 (Journal of Natural Medicines, 2021)
